“Also recorded” adds a separate entry of the source.
Key:
Assay type in all cases: biochemical
[1] = tested on: human cardiac microsomes; experiment: Superoxide anion formation (superoxide dismutase-inhibitable reduction of cytochrome c) by deoxycholate-solubilized human cardiac microsomes; conditions: for effect of taxane on DOX-dependent superoxide anion formation (in words): DOX plus 10 μM taxane; for generation of superoxide anion radicals in microsomal fractions: human cardiac microsomes, n=4-10
Method: (§1) Reconstitution of DOX Metabolism and Free Radical Formation, Plus or Minus Taxanes, in Human Cardiac Microsomes.
(§2) 105,000 g pellets from human myocardium homogenates are solubilized with deoxycolate and reconstituted at the final concentration of 0.025 mg prot/ml with 10 μM DOX, 1-10 μM taxane, 0.1 mM NADPH, in 0.3 M NaCl, pH 7.0, 37° C.
(§3) Electron flow from NADPH cytochrome P-450 reductase to the quinone moiety of DOX is detected by monitoring NADPH oxidation. Redox coupling of the semiquinone with oxygen is detected by monitoring formation of the superoxide anion radical with the superoxide dismutase-inhibitable reduction of cytochrome c (25 μM). These assays are performed in a Hewlett Packard 8453A UV/VIS/NIR spectrometer equipped with computer-assisted corrections for scatter and turbidity.

[2] = tested on: human cardiac cytosol; experiment: Conversion of DOX aglycone into DOXol aglycone, plus or minus taxanes, in human cardiac cytosol; conditions: for stimulation of conversion of DOX aglycone into DOXol aglycone (in words): DOX aglycone in place of DOX, plus taxane; for cytoplasmic conversion of doxorubicinone to doxorubicinolone: n=3
Text: (§4) The enzymes of DOX metabolism are strongly species-related. To avoid the potential pitfalls associated with studies in animal models, an in vitro human heart assay was utilized. The assay involves isolation of both cytosolic fractions generating DOXol, and microsomal fractions converting DOX to free radicals.
(§5) Human myocardium is obtained from patients undergoing aorto-coronary bypass grafting. All samples were routinely disposed of by the surgeons from the lateral aspect of excluded right atrium during cannulation procedures for cardio-pulmonary by-pass. After storage at −80° C., pools of 15-20 samples are processed for cytosol preparation by sequential homogenization, ultracentrifugation and overnight 65% ammonium sulfate precipitation of 105,000 g supernatants. Next, cytosol is dialyzed against 100 mM Tris HCl-40 mM KCl, pH 8.9, diluted to 3 mg protein/ml with the same buffer, and incubated for 15 minutes at room temperature with 100 mM dithiothreitol to promote non-denaturing disassembly of the [4Fe-4S] cluster of cytoplasmic aconitase. This treatment is necessary as reactions of DOXol with [4Fe-4S] clusters would convert this metabolite back to DOX. Sizable amounts of DOXol would therefore go undetected if they reacted with [4Fe-4S] clusters prior to their assay. Unreacted dithiothreitol was eventually removed by sequential gel filtration on (1.5×10 cm) Sepharose 6B columns, protein reprecipitation with 65% ammonium sulfate, and extensive dialysis against 0.3 M NaCl, pH 7.0. Doxorubicin metabolism was reconstituted in 0.5 ml incubations containing cytosol (0.15 mg protein), NADPH (100 μM) and DOX (25 μM), in 0.3 M NaCl (pH 7.0) 37° C. Where indicated ethanol-dissolved taxanes (1-50 μM) were included. Aliquots of taxane-free ethanol (5 μl) were included as appropriate to adjust the final volume to 10 μl in all incubations. After 4 h DOX and DOXol were extracted with 2 ml of CHCl3/CH3OH (1:1) and separated by previously validated two-dimensional TLC on (20×20 cm) […] F524 Silica Gel Plates, using CHCl3/CH3OH/CH3COOH/H2O (80:20:14:6) as mobile phase in either dimension. Doxorubicinol was identified by cochromatography with (S)-DOXol from Streptomyces peucetius or (S)(R)-DOXol purified after NaBH4 reduction of DOX. Where indicated incubations were prepared by replacing DOX with DOX aglycone and by measuring formation of DOXol aglycone. The latter was separated from DOX aglycone by using CHCl3/CH3OH/CH3COOH (100:2:5) and CH3COOC2H5—CH3CH2OH—CH3COOH—H2O (80:10:5:5) in the first and second dimension, respectively. DOX aglycone was purified after thermoacid hydrolysis of DOX.

[3] = tested on: human cardiac cytosol; experiment: Reconstitution of DOX metabolism and DOXol formation, plus or minus taxanes, in human cardiac cytosol; conditions: for stimulation of DOXol formation (in words): [4Fe-4S]-depleted human cardiac cytosol, DOX 25 μM, taxane 1-50 μM, 4 h; for cytoplasmic conversion of DOX to doxorubicinol: human cardiac cytosol, n=3
Text: as §4
Reconstitution of DOX Metabolism and DOXol Formation, Plus or Minus Taxanes, in Human Cardiac Cytosol.
as §5

[4] = tested on: NADPH cytochrome P-450 reductase; experiment: NADPH oxidation by deoxycholate-solubilized microsomes of human heart, plus or minus taxanes; conditions: 10 μM DOX, 1-10 μM taxane
Method: as §1, §2, §3

[5] = deoxycholate-solubilized microsomes
[6] = DOX alone, no taxane (baseline)
[7] = taxane 1 μM with doxorubicinone

| effect on NADPH oxidation in the presence of DOX (in words) [4] | generation of superoxide anion radicals in microsomal fractions [1, 6] [nmol/mg prot./min] | generation of superoxide anion radicals in microsomal fractions ([1]; taxane 10 μM with DOX) [nmol/mg prot./min] | SMILES | effect of taxane on DOX-dependent superoxide anion formation (in words) [1, 5] | stimulation of conversion of DOX aglycone into DOXol aglycone (in words) [2] | stimulation of DOXol formation (in words) [3] | effect of DOX on superoxide anion formation (in words) ([1]; deoxycholate-solubilized microsomes, DOX without taxane) | cytoplasmic conversion of DOX to doxorubicinol [3, 6] [nmol/mg prot./4 h] | cytoplasmic conversion of doxorubicinone to doxorubicinolone [2, 7] [nmol/mg prot./4 h] | cytoplasmic conversion of DOX to doxorubicinol ([3]; taxane 1 μM with DOX) [nmol/mg prot./4 h] | cytoplasmic conversion of doxorubicinone to doxorubicinolone ([2]; doxorubicinone alone, no taxane (baseline)) [nmol/mg prot./4 h] |
| --- | --- | --- | --- | --- | --- | --- | --- | --- | --- | --- | --- |
| appeared to inhibit NADPH oxidation | – | – | CSCO[C@H]1C[C@H]2OC[C@@]2(OC(C)=O)[C@H]2[C@H](OC(=O)c3ccccc3)[C@]3(O)C[C@H](OC(=O)[C@H](O)[C@@H](NC(=O)c4ccccc4)c4ccccc4)C(C)=C([C@@H](OC(C)=O)C(=O)[C@]12C)C3(C)C [7-methylthiomethyl taxol] | did not increase; also recorded: did not afford any significant stimulation | did not increase; also recorded: has not been found to stimulate the formation of DOXol aglycone | did not increase; also recorded: did not stimulate DOXol formation at any of the concentrations tested | – | – | – | – | – |
| – | 1.6±0.1 | – | COc1cccc2c1C(=O)c1c(O)c3c(c(O)c1C2=O)C[C@@](O)(C(=O)CO)C[C@@H]3O[C@H]1C[C@H](N)[C@H](O)[C@H](C)O1 [DOX, doxorubicin] | – | – | – | able to enhance superoxide anion formation | 0.46±0.04 | – | – | – |

Continued, compound first:

| SMILES | effect on NADPH oxidation in the presence of DOX (in words) [4] | generation of superoxide anion radicals in microsomal fractions [1, 6] [nmol/mg prot./min] | generation of superoxide anion radicals in microsomal fractions ([1]; taxane 10 μM with DOX) [nmol/mg prot./min] | effect of taxane on DOX-dependent superoxide anion formation (in words) [1, 5] | stimulation of conversion of DOX aglycone into DOXol aglycone (in words) [2] | stimulation of DOXol formation (in words) [3] | effect of DOX on superoxide anion formation (in words) ([1]; deoxycholate-solubilized microsomes, DOX without taxane) | cytoplasmic conversion of DOX to doxorubicinol [3, 6] [nmol/mg prot./4 h] | cytoplasmic conversion of doxorubicinone to doxorubicinolone [2, 7] [nmol/mg prot./4 h] | cytoplasmic conversion of DOX to doxorubicinol ([3]; taxane 1 μM with DOX) [nmol/mg prot./4 h] | cytoplasmic conversion of doxorubicinone to doxorubicinolone ([2]; doxorubicinone alone, no taxane (baseline)) [nmol/mg prot./4 h] |
| --- | --- | --- | --- | --- | --- | --- | --- | --- | --- | --- | --- |
| CC(=O)O[C@@]12CO[C@@H]1C[C@H](O)[C@@]1(C)C(=O)[C@H](O)C3=C(C)[C@@H](OC(=O)[C@H](O)[C@@H](NC(=O)OC(C)(C)C)c4ccccc4)C[C@@](O)([C@@H](OC(=O)c4ccccc4)[C@H]21)C3(C)C [DCT, docetaxel] | – | – | – | significant increase in superoxide formation | able to stimulate the conversion of DOX aglycone into DOXol aglycone | stimulate DOXol formation | – | – | 1.3±0.2 | 1.2±0.2 | – |
| COc1cccc2c1C(=O)c1c(O)c3c(c(O)c1C2=O)C[C@@](O)(C(=O)CO)C[C@@H]3O [doxorubicinone] | – | – | – | – | – | – | – | – | – | – | 0.8±0.1 |
| CC(=O)O[C@H]1C(=O)[C@@]2(C)[C@H]([C@H](OC(=O)c3ccccc3)[C@]3(O)C[C@H](OC(=O)[C@H](O)[C@@H](NC(=O)c4ccccc4)c4ccccc4)C(C)=C1C3(C)C)[C@]1(OC(C)=O)CO[C@@H]1C[C@@H]2O [PTX, paclitaxel] | able to stimulate NADPH oxidation | – | 2.2±0.2 | significant increase in superoxide formation | able to stimulate the conversion of DOX aglycone into DOXol aglycone | stimulate DOXol formation | – | – | 1.4±0.2 | 1.1±0.2 | – |
